Converted amounts (≈) assume the structure as drawn. Where only a bound is given, the exact number is not on record here.

The data set in a line: Water solubility of test compounds compared with EPA. It counts as physicochemical. To be noted: thermodynamic from solid; distilled water added in small portions until clear solution. The protocol: Measurement of the water solubility of the test compound was accomplished by using methods well known to those skilled in the art. Specifically, to a weighed amount of the test compounds of Example-1, Example-2, Example-3 and EPA were taken in separate vials; distilled water was added in small portions until a clear solution was obtained. The water solubility is calculated by dividing the weight of salt, in mg, by the volume of the solution, in mL. The water solubility of the compounds of example-1, example-2, example-3 compared to EPA alone were as follows: […]
Take `CC/C=C\C/C=C\C/C=C\C/C=C\C/C=C\CCCC(=O)O` [EPA, Eicosapentaenoic Acid, reference compound]: the solubility (as a rule, how much of the substance goes into solution per volume) was less than 0.3 mg/mL.
On to `CC/C=C\C/C=C\C/C=C\C/C=C\C/C=C\CCCC(=O)OCC(C)(C)[C@@H](OC(=O)c1cccnc1)C(=O)NCCC(=O)O` [Example-2, amino(3,3-dimethylguanidino)methaniminium 3-((R)-4-((5Z,8Z,11Z,14Z,17Z)-icosa-5,8,11,14,17-pentaenoyloxy)-3,3-dimethyl-2-(nicotinoyloxy)butanamido)propanoate], for which the solubility stood at 103 mg/mL (≈ 169 mM).
On to `CC/C=C\C/C=C\C/C=C\C/C=C\C/C=C\CCCC(=O)OCC(C)(C)[C@@H](OC(=O)c1ccccc1OC(=O)c1ccccc1OC(C)=O)C(=O)NCCC(=O)O` [Example-3, amino(3,3-dimethylguanidino)methaniminium3-((R)-2-((2-((2-acetoxybenzoyl)oxy)benzoyl)oxy)-4-((5Z,8Z,11Z,14Z,17Z)-icosa-5,8,11,14,17-pentaenoyloxy)-3,3-dimethylbutanamido)propanoate], for which the solubility turned out to be 98 mg/mL (≈ 125 mM).
Then `CC/C=C\C/C=C\C/C=C\C/C=C\C/C=C\CCCC(=O)OCC(C)(C)[C@@H](O)C(=O)NCCC(=O)O` [Example-1, amino(3,3-dimethylguanidino)methaniminium 3-((R)-2-hydroxy-4-((5Z,8Z,11Z,14Z,17Z)-icosa-5,8,11,14,17-pentaenoyloxy)-3,3-dimethylbutanamido) propanoate], with 60 mg/mL (≈ 119 mM).

Source of the values: patent US9174931B2, “Compositions for the treatment of diabetes and pre-diabetes” (CELLIX BIO PRIVATE LIMITED, priority 2013, dated 2015).
